Target: T1, Ubc13-Uev1 heterodimer (Homo sapiens, UniProt P61088)
T1 construct: gene UBE2N; heterodimer of purified recombinant Ubc13 and Uev1; with Ubiquitin-conjugating enzyme E2 variant 1
Experiment: surface plasmon resonance competition: Ubc13 preincubated with compound, injected over immobilized Uev1
Type: binding
Conditions: inhibition of Ubc13-Uev1 interaction; Ubc13 400 nM; 10 mM HEPES, 0.15 M NaCl, pH 7.4; legend prints 1.1 µM

T1 sequence (P61088 whole entry): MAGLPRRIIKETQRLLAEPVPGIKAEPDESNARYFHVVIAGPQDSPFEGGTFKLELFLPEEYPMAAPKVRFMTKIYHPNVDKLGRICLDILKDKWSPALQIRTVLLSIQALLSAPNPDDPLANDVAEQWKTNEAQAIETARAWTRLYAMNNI
T1 sequence (Q13404 2-147 partner): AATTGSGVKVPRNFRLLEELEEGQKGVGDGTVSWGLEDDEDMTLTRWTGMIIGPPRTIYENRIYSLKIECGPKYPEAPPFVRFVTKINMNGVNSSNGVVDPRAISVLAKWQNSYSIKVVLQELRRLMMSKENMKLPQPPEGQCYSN

- IC50: 1100 nM
SMILES: NC(=O)CN(CCc1ccccn1)C(=O)CC1C(=O)N(CCc2ccc(F)cc2)CC(=O)N1CCc1ccc(F)cc1 (stereo not shown) [IIa, compound IIa]
